Test results taken from article PMC8121805, “Discovery of first-in-class inhibitors of ASH1L histone methyltransferase with anti-leukemic activity” (Nature Communications, 2021).
Where “and” joins values, the source holds several entries; their conditions need not be identical. Equal entries are not always repeated.

Key:
Type in all cases: cell-based, human
RS4;11 cells = experiment: MTT cell viability assay; conditions: 7 days
Description: (§1) Human leukemia cells K562, MV4;11 and RS4;11 (purchased from ATCC) and KOPN8, MOLM13 (purchased from DSMZ) were cultured in RPMI 1640 (Invitrogen) supplemented with 10% heat inactivated (h.i.) FBS and 1% penicillin/streptomycin (Invitrogen). SET2 cells (purchased from DSMZ) were cultured in RPMI 1640 supplemented with 20% h.i. FBS and 1% penicillin/streptomycin. Cells were plated at 1 × 10^5 to 2 × 10^5 cells/mL depending on cell line and treated with 0.25% DMSO or varying concentrations of compounds and incubated at 37 °C, 5% CO2 incubator for 7 days. Media was changed on day 3 or 4 and compounds were resupplied. […] Cell suspensions (100 μL) were transferred to the 96-well plates for each sample in quadruplicate at the time of media change. At day 7, 10 µL of MTT reagent (M6494, Molecular Probes™) was added to each well of the 96 well plate and incubated at 37 °C for 4 h. The formazan was then solubilized by adding 100 µL acidified 10% SDS solution and incubated at 37 °C overnight. Plates were read for absorbance at 570 nm using a PHERAstar BMG microplate reader. The experiments were performed two times in quadruplicates with calculation of mean and SD for each condition. Data were analyzed in Prism 8.0.0 to obtain GI50 values.

SET2 cells = experiment: MTT cell viability assay; conditions: MTT, 7 days
Description: as §1

MV4;11 cells = experiment: MTT cell viability assay; conditions: MTT, 7 days
Description: (§2) FBS and 1% penicillin/streptomycin. […] Media was changed on day 3 or 4 and compounds were resupplied. […] Cell suspensions (100 μL) were transferred to the 96-well plates for each sample in quadruplicate at the time of media change. At day 7, 10 µL of MTT reagent (M6494, Molecular Probes™) was added to each well of the 96 well plate and incubated at 37 °C for 4 h. The formazan was then solubilized by adding 100 µL acidified 10% SDS solution and incubated at 37 °C overnight. Plates were read for absorbance at 570 nm using a PHERAstar BMG microplate reader. The experiments were performed two times in quadruplicates with calculation of mean and SD for each condition. Data were analyzed in Prism 8.0.0 to obtain GI50 values.
(§3) Supplementary Figure 7. […] (a)
(§4) Titration curves from the MTT cell viability assay performed after 4, 7, and 11 (or 10) days of
(§5) Titration curves from the MTT cell viability assay performed after 7 days of treatment of KOPN8 ,
(§6) MOLM13 and MV4;11 cell lines harboring MLL1 translocation (MLL1-r) or K562 cell line (non-
(§7) Representative graphs are shown
(§8) from two independent MTT experiments performed for each cell line.

MOLM13 cells = experiment: MTT cell viability assay; conditions: MTT, 7 days
Description: as §2, §3, §4, §5, §6, §7, §8

[1] = tested on: MLL leukemia cells (MV4;11, MOLM13, KOPN8, RS4;11); experiment: MTT cell viability assay, MLL leukemia cells as a group; conditions: 7 days
Description: as §1
Supplementary Figure 4. Cell viability assay for AS-6 in MLL leukemia cell lines. Titration curves from the MTT cell viability assay performed after 7 days of treatment of human MLL1- […]
replicates. Representative graphs are shown from two independent MTT experiments performed […]
as §3
Titration curves from the MTT cell viability assay performed after 4, 7, and 11 (or 10) days of […]
Titration curves from the MTT cell viability assay performed after 7 days of treatment of KOPN8 , MOLM13 and MV4;11 cell lines harboring MLL1 translocation (MLL1-r) or K562 cell line (non- […]
Representative graphs are shown from two independent MTT experiments performed for each cell line. GI50 values correspond to […]

Compound: CN1CC(C(=O)NCc2ccc3c(-c4cccc(C(N)=O)c4)cn(C4CCN(S(=O)(=O)C(F)(F)F)CC4)c3c2)C1 [AS-nc]
- % activity RS4;11 (RS4;11 cells; log[compound] -4.92082): 85.5125% and 87.6993% and 89.3394% and 75.672%
- % activity RS4;11 (RS4;11 cells; log[compound] -5.22185): 105.376% and 104.647% and 93.5307% and 91.5262%
- % activity RS4;11 (RS4;11 cells; log[compound] -5.52288): 102.096% and 100.638% and 93.713% and 78.4055%
- % activity RS4;11 (RS4;11 cells; log[compound] -5.82391): 120.137% and 113.941% and 76.4009% and 77.1298%
- % activity RS4;11 (RS4;11 cells; log[compound] -6.12494): 99.7267% and 104.647% and 93.8952%
- % activity RS4;11 (RS4;11 cells; log[compound] -6.42597): 106.287% and 103.553% and 98.8155% and 91.344%
- % activity SET2 (SET2 cells; log[compound] -4.92082): 98.5542% and 101.644% and 102.951% and 102.436%
- % activity SET2 (SET2 cells; log[compound] -5.22185): 96.2567% and 98.5146% and 98.9107% and 94.9495%
- % activity SET2 (SET2 cells; log[compound] -5.52288): 90.1168% and 94.8703% and 93.8007% and 101.723%
- % activity SET2 (SET2 cells; log[compound] -5.82391): 80.8081% and 86.1953% and 84.7693% and 93.5235%
- % activity SET2 (SET2 cells; log[compound] -6.12494): 93.2858% and 94.8703% and 102.04% and 107.625%
- % activity SET2 (SET2 cells; log[compound] -6.42597): 105.803% and 101.208% and 102.278% and 90.711%
- % activity MV4;11 (MV4;11 cells; log[compound] -4.92082): 33.9271% and 38.4523% and 37.682% and 37.2006%
- % activity MV4;11 (MV4;11 cells; log[compound] -5.22185): 75.4242% and 68.4439% and 74.2207% and 76.0501%
- % activity MV4;11 (MV4;11 cells; log[compound] -5.52288): 93.14% and 102.624% and 98.3873% and 102.19%
- % activity MV4;11 (MV4;11 cells; log[compound] -5.82391): 95.1619% and 88.5666% and 92.2253% and 96.7986%
- % activity MV4;11 (MV4;11 cells; log[compound] -6.12494): 101.179% and 95.4026% and 92.466% and 99.4464%
- % activity MV4;11 (MV4;11 cells; log[compound] -6.42597): 105.753% and 96.7024% and 99.7834% and 97.7615%
- % activity MOLM-13 (MOLM13 cells; log[compound] -4.92082): 79.465% and 80.5109% and 111.082% and 96.078%
- % activity MOLM-13 (MOLM13 cells; log[compound] -5.22185): 91.4119% and 88.8777% and 88.5559% and 94.107%
- % activity MOLM-13 (MOLM13 cells; log[compound] -5.52288): 100.261% and 95.3942% and 100.744% and 98.5318%
- % activity MOLM-13 (MOLM13 cells; log[compound] -5.82391): 98.572% and 96.1183% and 100.945% and 90.7281%
- % activity MOLM-13 (MOLM13 cells; log[compound] -6.12494): 105.41% and 99.4972% and 101.227% and 102.474%
- % activity MOLM-13 (MOLM13 cells; log[compound] -6.42597): 103.801% and 99.1352% and 97.8479% and 99.2156%
- effect on MLL leukemia cells (viability) [1]: no or much weaker effects
